According to patent US9320739B2 (AMBIT BIOSCIENCES CORPORATION, priority 2008, dated 2016):
Where two headings read alike, the source gives them in different places.

Key:
[1] = target: T1, RAF kinases (Homo sapiens, UniProt P15056, V600E); assay: Competition binding assay to determine binding constants (Kd) between compounds and RAF kinases; settings: BRAF V600E
T1 construct: rows headed: BRAF V600E Kd; other: BRAF V600E; fused on or other part: T7 phage fusion, or DNA tag for PCR detection after expression in HEK-293 cells
Procedure: (§1) Competition binding assays used herein were developed, validated and performed as described in Fabian et al., Nature Biotechnology 2005, 23, 329-336. […] The liganded beads were blocked with excess biotin and washed with blocking buffer (SeaBlock (Pierce), 1% BSA, 0.05% Tween 20, 1 mM DTT) to remove unbound ligand and to reduce non-specific binding. […] Test compounds were prepared as 100× stocks in DMSO and rapidly diluted into the aqueous environment. DMSO was added to control assays lacking a test compound. Primary screen interactions were performed in polypropylene 384-well plates in a final volume of 34 μL, while Kd determinations were performed in polystyrene 96-well plates in a final volume of 135 pt. […] The kinase concentration in the eluates was measured by quantitative PCR. Each kinase was tested individually against each compound. Kds were determined using eleven serial threefold dilutions. A selectivity score, which is a quantitative measure of selectivity of a compound against a panel of enzymes, may be calculated for a compound by dividing the number of enzymes for which a compound meets a set criteria, (for example, a binding constant of 100 nM or less), by the total number of enzymes tested. […] (Note, for those compounds tested in a larger kinase panel, as indicated by an asterisk (*) next to the S35 score, the divisor is 321 (i.e. the larger panel contains 321 distinct kinases, excluding mutant variants.)).

[2] = test system: panel of 290 distinct kinases (321 in the larger panel), excluding mutant variants; settings: no asterisk: panel of 290 distinct kinases
Procedure: as §1

[3] = target: T2, RAF kinases (Homo sapiens, UniProt P15056); assay: Competition binding assay to determine binding constants (Kd) between compounds and RAF kinases; settings: BRAF WT
T2 construct: rows headed: BRAF WT Kd; other: BRAF WT; fused on or other part: T7 phage fusion, or DNA tag for PCR detection after expression in HEK-293 cells
Procedure: as §1

[4] = target: T3, RAF kinases (Homo sapiens, UniProt P04049); assay: as above; settings: RAF1
T3 construct: rows headed: RAF1 Kd; other: RAF1; fused on or other part: T7 phage fusion, or DNA tag for PCR detection after expression in HEK-293 cells
Procedure: as §1

[5] = fraction of kinases inhibited 65% or greater

T1 sequence (P15056 whole entry V600E, the tested form may be a part): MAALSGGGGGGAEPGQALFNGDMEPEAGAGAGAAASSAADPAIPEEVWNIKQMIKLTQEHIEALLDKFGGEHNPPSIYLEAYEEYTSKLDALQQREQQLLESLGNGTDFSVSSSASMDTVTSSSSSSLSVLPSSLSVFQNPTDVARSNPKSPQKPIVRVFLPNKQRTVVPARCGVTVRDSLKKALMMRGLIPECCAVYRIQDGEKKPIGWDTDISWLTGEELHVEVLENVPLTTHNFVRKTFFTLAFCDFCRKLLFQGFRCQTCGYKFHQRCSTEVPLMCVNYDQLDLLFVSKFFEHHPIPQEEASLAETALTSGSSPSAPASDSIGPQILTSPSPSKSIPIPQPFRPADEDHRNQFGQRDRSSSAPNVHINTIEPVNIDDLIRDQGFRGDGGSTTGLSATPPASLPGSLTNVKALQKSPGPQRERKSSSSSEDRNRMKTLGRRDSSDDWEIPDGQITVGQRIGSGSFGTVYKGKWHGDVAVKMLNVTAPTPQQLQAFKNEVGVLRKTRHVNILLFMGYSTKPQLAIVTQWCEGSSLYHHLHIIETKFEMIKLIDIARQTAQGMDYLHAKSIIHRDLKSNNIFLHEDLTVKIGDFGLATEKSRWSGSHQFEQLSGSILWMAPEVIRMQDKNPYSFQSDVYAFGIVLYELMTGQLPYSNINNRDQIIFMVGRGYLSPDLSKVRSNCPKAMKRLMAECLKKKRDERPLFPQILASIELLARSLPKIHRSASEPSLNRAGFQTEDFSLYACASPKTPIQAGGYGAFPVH
T3 sequence (P04049 whole entry, the tested form may be a part): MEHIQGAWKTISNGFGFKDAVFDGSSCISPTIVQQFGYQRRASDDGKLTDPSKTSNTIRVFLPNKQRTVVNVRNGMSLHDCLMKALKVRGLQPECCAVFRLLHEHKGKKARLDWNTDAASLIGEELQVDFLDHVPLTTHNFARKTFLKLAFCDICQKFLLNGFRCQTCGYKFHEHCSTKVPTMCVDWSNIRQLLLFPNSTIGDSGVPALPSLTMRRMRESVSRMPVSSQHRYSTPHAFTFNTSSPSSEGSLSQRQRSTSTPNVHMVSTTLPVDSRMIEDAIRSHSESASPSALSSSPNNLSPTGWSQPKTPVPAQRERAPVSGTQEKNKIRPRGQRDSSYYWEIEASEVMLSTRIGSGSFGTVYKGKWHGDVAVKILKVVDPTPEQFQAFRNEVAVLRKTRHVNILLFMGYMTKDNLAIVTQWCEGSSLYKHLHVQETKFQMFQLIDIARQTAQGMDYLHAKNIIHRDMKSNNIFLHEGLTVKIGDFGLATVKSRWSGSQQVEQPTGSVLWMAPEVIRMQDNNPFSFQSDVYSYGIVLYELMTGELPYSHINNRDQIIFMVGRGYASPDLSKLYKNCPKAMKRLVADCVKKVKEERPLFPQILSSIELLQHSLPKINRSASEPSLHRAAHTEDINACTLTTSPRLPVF
T2 sequence (P15056 whole entry, the tested form may be a part): as the sequence (P15056 whole entry V600E, the tested form may be a part) above, with E600V counted along it

Structure (SMILES)	Kd [1]	S35 [2, 5]	Kd [3]	Kd [4]	S35 [2]
COc1cc2ncnc(Oc3cccc(NC(=O)Nc4cc(C(F)(F)F)n(-c5ccccc5)n4)c3)c2cc1OC [Ex 169, 1-[3-(6,7-dimethoxyquinazolin-4-yloxy)phenyl]-3-[1-phenyl-5-(trifluoromethyl)-1H-pyrazol-3-yl]urea]	0.25 to 0.5 µM				
COc1cc2ncnc(Oc3cccc(NC(=O)Nc4ccc(Cl)cc4)c3)c2cc1OC [Ex 175, 1-(4-chlorophenyl)-3-(3-(6,7-dimethoxyquinazolin-4-yloxy)phenyl)urea]	< 0.25 µM	C (0.20 < C ≦ 0.40)	< 0.25 µM	< 0.25 µM	
COc1cc2ncnc(Oc3cc(NC(=O)Nc4cc(C(C)(C)C)on4)ccc3Cl)c2cc1OC [Ex 10, 1-(5-tert-butylisoxazol-3-yl)-3-(4-chloro-3-(6,7-dimethoxyquinazolin-4-yloxy)phenyl)urea]		D (D > 0.40)		0.5 to 1 µM	
COc1cc2ncnc(Oc3cccc(NC(=O)Nc4cc(C(C)(F)F)nn4-c4cncc(F)c4)c3)c2cc1OC [Ex 316, 1-(3-(1,1-difluoroethyl)-1-(5-fluoropyridin-3-yl)-1H-pyrazol-5-yl)-3-(3-(6,7-dimethoxyquinazolin-4-yloxy)phenyl)urea]					C (0.20 < C ≦ 0.40)
